Reference: BigSolDB 2.1

CCCCc1nc(Cl)c(CO)n1Cc1ccc(-c2ccccc2-c2nnn[n-]2)cc1.[K+]
solubility (mole fraction)
Details	in cyclohexane	in ethanol	in ethyl acetate	in isopropanol	in methanol	in n-butyl acetate	in n-pentanol	in n-propanol
293.15 K	3.4e-05	0.0381	0.00251	0.0027	0.0277	0.00271	0.0446	0.026
303.15 K	2.87e-05	0.0473	0.00152	0.00279	0.0375	0.00238	0.0311	0.0272
313.15 K	3.05e-05	0.0547	0.00252	0.00413	0.0445	0.000968	0.0287	0.0299
323.15 K	2.72e-05	0.0702	0.00138	0.00547	0.0483	0.00121	0.0234	0.0376
333.15 K	2.88e-05	0.0739	0.00288	0.00696	0.0508	0.00193	0.0205	0.0452
343.15 K	2.59e-05	0.0785	0.00279	0.0117	0.0533	0.000907	0.0218	0.0499
